Data from patent US9827181B2, “Method and pharmaceutical composition for hair growth” (INDUSTRIAL TECHNOLOGY RESEARCH INSTITUTE, priority 2013, dated 2017).
Entries after “also recorded” stand apart in the source; their conditions may differ.

Key:
[1] = test system: hair follicles on the dorsal skin of female C57BL/6 mice; test: mouse model of hair regeneration (dorsal skin, refractory telogen phase); conditions: high dosage level (2000 μM) on dorsal skin, once a day for 10 days, negative = no hair growth;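 also: mice roughly 8 weeks old, negative control skin section treated with 100% alcohol, regrowth checked daily with day counted from start of dosing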
Method: The mouse model adopts female C57BL/6 mice (about 8 weeks).
In the present disclosure, the sample solution is applied on the dorsal skin, where the hair follicle stays at the refractory telogen phase, to observe whether the peptides are beneficial to hair growth.
The sample solution is applied on each of the sections for 10 days. The administration of the sample solution includes, but not limited to, the injection (50 μl) and the coating (10 μl). In addition, the dosage of the sample solution includes, but not limited to, the high dosage level (2000 μM) and the low dosage level (200 μM).
In order to avoid experimental error due to manual operation, a positive control and a negative control are predetermined on two sections. […] The second section 2 is coated with high dosage level of HGP or the pharmaceutical composition for 10 days (once a day). The third section 3 is coated with low dosage level of HGP or the pharmaceutical composition for 10 days (once a day). The fourth section 4 is coated with 100% alcohol for 10 days (once a day). The fourth section 4 is regarded as the negative control. The fifth section 5 is continuously injected with the high dosage of HGP or pharmaceutical composition for 10 days (once a day). The sixth section 6 is continuously injected with the low dosage of HGP or pharmaceutical composition for 10 days (once a day). The HGP prepared for the sections is the same amino acid sequence.
HGP or pharmaceutical composition having the same as referred at the table 1 is implemented through the above-mentioned process and then the hair regeneration condition is recorded everyday. Since the period of the refractory telogen phase is 28 days, it is regards as a negative result that no hair regeneration is observed at thirtieth day after the administration of the sample solution.
The number x of the hair growth in the table 3 means that the hair regeneration condition is observed at the x'th day after the high dosage level is administrated on the dorsal skin. For instance, the number (x=5) means that the hair growth is observed at fifth day. Furthermore, the symbol NA represents the need for further analysis. […] In addition, the “negative” represents no hair growth by using the peptide in accordance with the experimental number.

[2] = test system: Wnt7b gene expression in macrophages; test: RT-PCR analysis in macrophages, Wnt7b; assay type: cell-based, human; conditions: 200 μM peptide for 8 hours
Method: (§1) The SEQ ID No. 1 peptide is treated in HHFK, HaCaT and human macrophage to study the hair growth mechanism induced by the SEQ ID No. 1 peptide. In the present disclosure, Human Hair Follicular Keratinocytes (HHFK), HaCaT Keratinocyte and macrophages are used as cell models for realizing the mechanism. Reporter assay and QRT-PCR are used as bioactivity assays to identify how the SEQ ID No. 1 peptide improves hair growth. After macrophages are treated with the 200 μM SEQ ID No: 1 peptide (iPept-1) for 8 hours, gene regulation of Wnt family (Wnt1, Wnt2, Wnt3a, Wnt4, Wnt6, Wnt7a, Wnt7b, Wnt10a, Wnt10b, Wnt16) are detected by RT-PCR and QRT-PCR tests as shown in FIGS. 8 and 9. It is observed that the transcription level of Wnt16 and Wnt7b increases in accordance with the treatment of iPept-1.

[3] = test system: β-catenin activity in Human Hair Follicular Keratinocytes (HHFK); test: TCF reporter assay in HHFK cell line; assay type: cell-based; conditions: HHFK cells, 200 μM peptide, TOP/FOP reporter, FIG. 6; listed as SEQ ID No: 1
Method: (§2) FIG. 6 illustrates a schematic view of a TCF reporter assay in Human Hair Follicular Keratinocytes (HHFK) cell line. TOP represents that the reporter gene has a functional binding site where β-catenin is bound. […] CTL represents that HHFK cell line is not treated with any stimulant. iPept-1 means that HHFK cell line is treated with the SEQ ID No: 1 peptide.
(§3) In the present disclosure, Human Hair Follicular Keratinocytes (HHFK), HaCaT Keratinocyte and macrophages are used as cell models for realizing the mechanism. Reporter assay and QRT-PCR are used as bioactivity assays to identify how the SEQ ID No. 1 peptide improves hair growth.

[4] = test system: β-catenin in the hair follicle stem cells; test: immuno-fluorescent staining, β-catenin marker; assay type: in vivo, mouse; conditions: FIG. 5, listed as SEQ ID No: 1
Method: (§4) After the female C57BL/6 mice are injected with the SEQ ID No. 1 peptide, the immuno-fluorescent staining with the marker CK15 is performed so as to observe whether the genes, such as Wnt3a, Wnt/β-catenin are activated or not.
(§5) Thus, the SEQ ID No: 1 peptide enables activation of the regeneration of the hair follicle stem cells. In order to realize how the SEQ ID No: 1 peptide activates the regeneration of the hair follicle stem cells, the immuno-fluorescent staining in accordance with Win/β-catenin signal transduction pathway is performed. […] Since β-catenin is a downstream gene of Wnt signal transduction pathway, activating β-catenin allows the initiation of a Wnt signal transduction pathway so as to regenerate the hair follicle stem cell. […] In other words, the SEQ ID No: 1 peptide may activate the Wnt/β-catenin signal transduction pathway to activate the regeneration of the hair follicle stem cells.

[5] = test system: β-catenin activity in HaCaT Keratinocytes; test: TCF reporter assay in HaCaT Keratinocyte cell line; assay type: cell-based; conditions: HaCaT cells, 200 μM peptide, TOP/FOP reporter, FIG. 7; listed as SEQ ID No: 1
Method: as §2, with “7” for “6”, “HaCaT Keratinocyte” for “Human Hair Follicular Keratinocytes (HHFK)”, “HaCaT Keratinocytes are” for “HHFK cell line is”
as §3

[6] = test system: Wnt3a in the hair follicle stem cells; test: immuno-fluorescent staining, Wnt3a marker; assay type: in vivo, mouse; conditions: FIG. 4
Method: as §4, §5

[7] = test system: Wnt16 gene expression in macrophages; test: RT-PCR / QRT-PCR analysis in macrophages, Wnt16; assay type: cell-based, human; conditions: 200 μM peptide for 8 hours
Method: as §1

[8] = test system: marker CK15 of the hair follicle stem cells; test: immuno-fluorescent staining, marker CK15; assay type: in vivo, mouse; conditions: mice injected with the peptide, FIG. 3
Method: as §4, §5

Substance	Number x (hair regeneration observed at the x'th day) [1]	further results
PSTHVLIT (a designed peptide according to experiment) [P10]	negative	
PSTHVL (a designed peptide according to experiment) [P8]	15 days	
FGSFVLITHTI (a designed peptide according to experiment) [P38]	negative	
PSTHVLIFGSG [P24]	negative	
FSTHVLITHTI (a designed peptide according to experiment) [P35]	15 days	
PSTHVLITHTI (a designed peptide according to experiments) [P1]	17 days	gene expression of Wnt7b (RT-PCR) ([2]; FIG. 8, listed as SEQ ID No: 1): activate the gene expression; gene expression of Wnt7b (RT-PCR) ([2]; FIG. 8, listed as iPept-1): increases; relative luciferase activity (activity of β-catenin) [3]: increase the activity of β-catenin; also recorded: enhance activity of β-catenin; activation of β-catenin in hair follicle stem cells [4]: effect on activating or regenerating the hair follicle stem cells; also recorded: activated; relative luciferase activity (activity of β-catenin) [5]: increase the activity of β-catenin; also recorded: enhance activity of β-catenin; activation of Wnt3a in hair follicle stem cells [6]: obviously activated; gene expression of Wnt16 (RT-PCR) ([7]; FIG. 8, listed as SEQ ID No: 1): activate the gene expression; gene expression of Wnt16 (RT-PCR) ([7]; FIG. 8, listed as iPept-1): increases; gene expression of Wnt16 (QRT-PCR) ([7]; FIG. 9): enhances the gene expression; activation of marker CK15 of hair follicle stem cells [8]: obviously activated
LITHTI (a designed peptide according to experiment) [P17]	22 days	
PSTHVLITGSG (a designed peptide according to experiment) [P25]	22 days	
PSTHVLITHTIS (a designed peptide according to experiment) [P29]	22 days	
GSFGFLITHTI (a designed peptide according to experiment) [P33]	negative	
FGSFGSITHTI (a designed peptide according to experiment) [P40]	negative	
FGSHVLITHTI (a designed peptide according to experiment) [P37]	negative	
PSTHVLITHGS (a designed peptide according to experiment) [P21]	23 days	
HVLITHTI (a designed peptide according to experiment) [P15]	negative	
FGSFGLITHTI (a designed peptide according to experiment) [P39]	negative	
PSTHVLITH (a designed peptide according to experiment) [P11]	19 days	
PSTHVLITHTISRI (a designed peptide according to experiment) [P6]	19 days	
PSTHVLSFGSG (a designed peptide according to experiment) [P23]	negative	
STHVL (a designed peptide according to experiment) [P5]	19 days	
PSTHVLITGSF (a designed peptide according to experiment) [P20]	negative	
PSTHVLITHTG (a designed peptide according to experiment) [P22]	23 days	

Substance	Number x (hair regeneration observed at the x'th day) [1]	further results
PSTHVLITHTISR (a designed peptide according to experiment) [P28]	negative	
VLITH (a designed peptide according to experiment) [P3]	17 days	
HVLIT (a designed peptide according to experiment) [P2]	17 days	
GSFHVLITHTI (a designed peptide according to experiment) [P31]	negative	
ITHTI (a designed peptide according to experiment) [P7]	17 days	
VLITHTI (a designed peptide according to experiment) [P16]	negative	
PSTHVLITHSG (a designed peptide according to experiment) [P26]	22 days	
PSTHVLI (a designed peptide according to experiment) [P9]	negative	
THVLITHTI (a designed peptide according to experiment) [P14]	negative	
PSTHVLLTHTI (a designed peptide according to experiments) [P41]	19 days	
STHVLITHTI (a designed peptide according to experiment) [P13]	negative	
FGTHVLITHTI (a designed peptide according to experiment) [P36]	15 days	
GSFGVLITHTI (a designed peptide according to experiment) [P32]	negative	
PSTHVLITHTS (a designed peptide according to experiment) [P27]	negative	
PSTHVLITHT (a designed peptide according to experiment) [P12]	19 days	
PSTHVLGSFGS [P18]	22 days	
LITHT (a designed peptide according to experiment) [P4]	17 days	
GSFGSFITHTI (a designed peptide according to experiment) [P34]	negative	
GSTHVLITHTI (a designed peptide according to experiment) [P30]	22 days	
PSTHVLIGSFG (a designed peptide according to experiment) [P19]	negative	
